Where a SMILES comes first, the peptide text is derived from it. The star is where a group is joined. CH2Cl = ClC*
Legend:
[1] = molecular target: T1, Epidermal growth factor receptor (Homo sapiens, UniProt P00533); test: Inhibition of EGFR in human A431 cells at 400 nmol/mg protein in presence of EGF; format: cell-based; details: A-431
[2] = molecular target: T1, Epidermal growth factor receptor; test: Inhibition of EGFR in human A431 cells at 400 nmol/mg protein in absence of EGF; format: cell-based; details: A-431
[3] = molecular target: T2, Proto-oncogene tyrosine-protein kinase Src (Homo sapiens, UniProt P12931)
Description: Inhibition of p60c-src expressed in chick embryo fibroblast

[4] = Inhibition of p40 tyrosine kinase
[5] = molecular target: T2, Proto-oncogene tyrosine-protein kinase Src; test: Inhibition of p60 src
[6] = molecular target: T3, Tyrosine-protein kinase transforming protein Abl (Abelson murine leukemia virus, UniProt P00521)
T3 sequence (P00521 whole entry): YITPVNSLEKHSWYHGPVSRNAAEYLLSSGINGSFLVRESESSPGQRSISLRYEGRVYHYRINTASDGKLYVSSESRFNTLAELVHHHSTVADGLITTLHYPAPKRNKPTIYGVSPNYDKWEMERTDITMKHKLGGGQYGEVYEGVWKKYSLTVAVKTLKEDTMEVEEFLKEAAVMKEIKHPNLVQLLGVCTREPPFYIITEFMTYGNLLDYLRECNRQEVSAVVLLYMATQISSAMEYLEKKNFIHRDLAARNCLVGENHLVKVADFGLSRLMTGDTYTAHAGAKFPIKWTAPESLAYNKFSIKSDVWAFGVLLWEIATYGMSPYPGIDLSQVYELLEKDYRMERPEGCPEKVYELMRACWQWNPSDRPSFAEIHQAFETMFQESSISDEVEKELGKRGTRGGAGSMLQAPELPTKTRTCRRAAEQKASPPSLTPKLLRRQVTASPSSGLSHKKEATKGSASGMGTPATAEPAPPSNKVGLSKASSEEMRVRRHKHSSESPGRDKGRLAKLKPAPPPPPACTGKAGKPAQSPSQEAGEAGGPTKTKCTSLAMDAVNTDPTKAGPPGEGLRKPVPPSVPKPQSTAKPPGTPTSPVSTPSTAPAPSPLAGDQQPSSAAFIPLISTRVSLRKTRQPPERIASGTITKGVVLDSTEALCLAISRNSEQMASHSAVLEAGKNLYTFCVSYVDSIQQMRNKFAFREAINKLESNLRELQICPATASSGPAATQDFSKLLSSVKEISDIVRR
Description: Inhibition of Abelson murine leukemia virus p60 v-abl

[7] = molecular target: T1, Epidermal growth factor receptor

T2 sequence (P12931 2-536 limits assumed): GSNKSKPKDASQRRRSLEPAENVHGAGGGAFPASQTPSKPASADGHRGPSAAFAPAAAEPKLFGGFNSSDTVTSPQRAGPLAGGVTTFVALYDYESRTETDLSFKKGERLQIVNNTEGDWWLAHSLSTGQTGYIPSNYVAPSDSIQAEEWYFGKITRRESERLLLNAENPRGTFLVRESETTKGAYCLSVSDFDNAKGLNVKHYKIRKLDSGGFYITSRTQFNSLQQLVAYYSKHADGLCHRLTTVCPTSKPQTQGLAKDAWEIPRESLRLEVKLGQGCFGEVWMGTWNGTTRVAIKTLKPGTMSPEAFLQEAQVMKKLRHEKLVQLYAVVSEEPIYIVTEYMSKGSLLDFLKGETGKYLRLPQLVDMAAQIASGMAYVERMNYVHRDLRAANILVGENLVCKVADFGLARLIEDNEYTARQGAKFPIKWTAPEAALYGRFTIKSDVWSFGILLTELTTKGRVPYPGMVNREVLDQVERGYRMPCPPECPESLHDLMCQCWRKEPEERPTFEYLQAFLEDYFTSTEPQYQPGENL
T1 sequence (P00533 whole entry): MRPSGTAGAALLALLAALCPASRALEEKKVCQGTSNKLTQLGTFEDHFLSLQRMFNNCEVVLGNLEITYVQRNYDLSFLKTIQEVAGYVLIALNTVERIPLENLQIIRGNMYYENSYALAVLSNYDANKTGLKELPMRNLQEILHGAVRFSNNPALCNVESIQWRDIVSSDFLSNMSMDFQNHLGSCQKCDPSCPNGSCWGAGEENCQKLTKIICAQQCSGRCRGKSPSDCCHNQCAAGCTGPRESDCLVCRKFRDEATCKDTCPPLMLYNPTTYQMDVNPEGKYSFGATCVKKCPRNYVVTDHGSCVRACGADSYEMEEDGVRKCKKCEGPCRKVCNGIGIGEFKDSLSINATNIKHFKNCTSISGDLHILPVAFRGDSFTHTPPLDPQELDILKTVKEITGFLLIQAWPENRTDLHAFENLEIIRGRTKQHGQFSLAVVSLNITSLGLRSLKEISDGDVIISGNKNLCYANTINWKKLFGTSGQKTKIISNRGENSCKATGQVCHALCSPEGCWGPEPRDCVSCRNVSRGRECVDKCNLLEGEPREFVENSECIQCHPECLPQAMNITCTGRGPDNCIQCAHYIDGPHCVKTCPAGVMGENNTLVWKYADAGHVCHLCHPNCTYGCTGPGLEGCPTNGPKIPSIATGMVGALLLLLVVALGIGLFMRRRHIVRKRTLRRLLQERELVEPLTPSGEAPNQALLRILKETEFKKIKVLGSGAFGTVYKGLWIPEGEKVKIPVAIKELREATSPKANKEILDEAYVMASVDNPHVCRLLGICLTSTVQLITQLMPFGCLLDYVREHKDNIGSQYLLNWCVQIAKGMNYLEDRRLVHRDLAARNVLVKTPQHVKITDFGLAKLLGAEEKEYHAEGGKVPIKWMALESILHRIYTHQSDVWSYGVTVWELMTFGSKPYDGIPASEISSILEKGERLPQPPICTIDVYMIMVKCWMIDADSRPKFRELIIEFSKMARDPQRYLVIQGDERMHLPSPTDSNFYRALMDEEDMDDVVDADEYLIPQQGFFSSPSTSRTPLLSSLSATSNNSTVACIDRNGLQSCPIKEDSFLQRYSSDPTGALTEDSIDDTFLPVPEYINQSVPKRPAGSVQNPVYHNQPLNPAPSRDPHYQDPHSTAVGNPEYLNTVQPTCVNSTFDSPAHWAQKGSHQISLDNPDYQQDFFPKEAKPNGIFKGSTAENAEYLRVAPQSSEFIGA

Row | inhibition [1] [%] | inhibition [2] [%] | Structure (SMILES) | further results
1 | 10 | 6 | O=C(CCl)[C@H](Cc1c[nH]c2ccccc12)NOCc1ccccc1 | –
2 | 10 | 4 | CC(=O)N[C@@H](C)C(=O)N[C@@H](C)C(=O)N[C@@H](Cc1ccccc1)C(=O)N[C@H](C(=O)CCl)[C@@H](C)O (Ac-AAFT-CH2Cl) | –
3 | – | – | Nc1nc2c(ncn2[C@@H]2O[C@H](COP(=O)(O)OP(=O)(O)OP(=O)(O)OP(=O)(O)OC[C@H]3O[C@@H](n4cnc5c(=O)[nH]c(N)nc54)[C@H](O)[C@@H]3O)[C@@H](O)[C@H]2O)c(=O)[nH]1 | IC50 [3]: > 100 µM
4 | – | – | O=C1C[C@@H](c2ccc(O)cc2)Oc2cc(O)cc(O)c21 [NARINGENIN] | IC50 [4]: 8 ×10¹ ug/ml
5 | 18 | 15 | CC(C)C[C@H](NC(=O)OCc1ccccc1)C(=O)C=[N+]=[N-] | –
6 | 69 | 65 | CC(C)C[C@H](NC(=O)OC(C)(C)C)C(=O)CBr | –
7 | – | – | Nc1ncnc2c1ncn2[C@@H]1O[C@H](COP(=O)(O)OP(=O)(O)OP(=O)(O)OP(=O)(O)O)[C@@H](O)[C@H]1O | IC50 [3]: 9 µM
8 | – | – | COc1cc(/C=C/C(=O)O)ccc1O [FERULATE] | IC50 [4]: > 300 µg/mL
9 | – | – | CC(C)[C@H](NC(=O)[C@H](CCCN=C(N)N)NC(=O)[C@@H](N)CC(=O)O)C(=O)N[C@@H](Cc1ccc(O)cc1)C(=O)N[C@H](C(=O)N[C@@H](Cc1cnc[nH]1)C(=O)N1CCC[C@H]1C(=O)N[C@@H](Cc1ccccc1)C(=O)O)C(C)C [[Val5] - ANGIOTENSIN II] | Ki [5]: 700 µM
10 | – | – | O=C(O)/C=C/c1ccc(O)cc1 [COUMARIC ACID] | IC50 [4]: > 300 µg/mL
11 | – | – | C[C@H](NC(=O)c1ccc(S(=O)(=O)Oc2ccc(/C=C/[N+](=O)[O-])cc2)cc1)C(=O)N[C@@H](C)C(=O)NCCN | IC50 [6]: 20 µM; IC50 [7]: 20 µM
12 | – | – | CCCCNC(=O)c1ccc(S(=O)(=O)Oc2ccc(/C=C/[N+](=O)[O-])cc2)cc1 | IC50 [6]: > 100 µM; IC50 [7]: 5 µM

Row | Structure (SMILES) | inhibition [1] [%] | inhibition [2] [%] | further results
13 | CC(C)C[C@H](N)C(=O)CCl | 0 | 16 | –

— ChEMBL document CHEMBL1150213, “Protein-tyrosine kinase inhibition: mechanism-based discovery of antitumor agents” (J Nat Prod, 1992)
